# Source: patent US10894014B2, “Orodispersible tablet containing Estetrol” (ESTETRA SPRL, priority 2015, dated 2021)
# Assays:
# [1] = Randomized, open-label, two-period, cross-over pharmacokinetic study, sublingual vs oral estetrol tablet; format: in vivo, healthy female volunteers; details: 10 mg estetrol sublingual vs oral tablet
# Method: A randomized, open-label, two-period, cross-over, pharmacokinetic study is conducted to compare sublingual bioavailability of 10 mg estetrol administered in one 80 mg tablet with oral availability of estetrol contained in a 83 mg tablet containing 10 mg estetrol. These tablets are administered sublingually and orally to healthy female volunteers under fasting conditions.
# Ten healthy female subjects are selected on the basis of the following criteria: age of 45-65 years (inclusive), nonsmokers or past smokers (at least 6 months before dosing), body-mass index (BMI)=18.5 to 30 kg/m^2 (inclusive at the time of the screening).
# At the start of the first and the second period of the study, between 07:00 am and 07:28 am, 5 subjects receive a single dose of the sublingual formulation of estetrol by administering one estetrol tablet (tablet weight 80 mg; 10 mg estetrol) and 5 subjects receive a single oral dose of the oral estetrol formulation by administering one estetrol tablet (tablet weight 83 mg; 10 mg estetrol), ingested together with 200 ml water. […]
# The estetrol concentration in the collected blood samples is determined by means of HPLC/MS/MS. The concentrations of glucuronided estetrol (D-ring) in the urine samples is also determined with the help of HPLC/MS/MS.
# [2] = humans, cited from earlier work
# [3] = test system: estrogen receptors; details: in vitro; cited from earlier work
# [4] = biological target: T1, sex hormone binding globulin (SHBG) (Homo sapiens, UniProt P04278); details: in vitro; cited from earlier work
# T1 sequence (P04278 30-402): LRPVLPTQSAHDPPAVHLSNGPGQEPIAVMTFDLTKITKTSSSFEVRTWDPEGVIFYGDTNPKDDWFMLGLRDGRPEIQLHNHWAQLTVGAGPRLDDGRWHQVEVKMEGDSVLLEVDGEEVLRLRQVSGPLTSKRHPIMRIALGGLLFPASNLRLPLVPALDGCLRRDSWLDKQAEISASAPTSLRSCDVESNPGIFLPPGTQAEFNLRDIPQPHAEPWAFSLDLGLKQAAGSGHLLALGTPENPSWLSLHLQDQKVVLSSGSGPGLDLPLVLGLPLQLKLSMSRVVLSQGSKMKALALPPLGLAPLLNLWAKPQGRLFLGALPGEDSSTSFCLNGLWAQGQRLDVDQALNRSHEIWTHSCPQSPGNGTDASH
# [5] = test system: production of SHBG; details: in vitro; cited from earlier work
# [6] = test system: vagina, uterus, body weight, bone mass, bone strength, hot flushes, ovulation; details: dose-dependent; cited from earlier work
# [7] = test system: DMBA mammary tumour; details: extent and dose level similar to tamoxifen and to ovariectomy; cited from earlier work
# [8] = test system: human breast cancer cells; details: in vitro; cited from earlier work
structure (smiles),measurement,setting,value
"C[C@]12CC[C@@H]3c4ccc(O)cc4CC[C@H]3[C@@H]1[C@@H](O)[C@@H](O)[C@@H]2O [estetrol, 1,3,5 (10)-estratrien-3,15α,16α,17β-tetrol]",impact on a liver function parameter,[1],less impact on a liver function parameter
same,oral bioavailability,[2]; oral,high and dose-proportional
same,terminal elimination half-life,[2],about 28 hours
same,"binding to estrogen receptors, selectivity",[3],binds highly selective to the estrogen receptors with preference for the ERα form
same,binding to SHBG,[4],does not bind
same,stimulation of production of SHBG,[5],does not stimulate
same,estrogenic effects in rat models,[6],"estrogenic effects on the vagina, the uterus (both myometrium and endometrium), body weight, bone mass, bone strength, hot flushes and on ovulation (inhibition)"
same,tumour development,[7],prevented tumour development
same,effect in the presence of 17β-estradiol,[8],anti-estrogenic effect
